Experimental data taken from patent US6787552B2, “PPAR delta activators” (Nippon Chemiphar Co., Ltd., priority 2000, dated 2004).
Values joined by “and” are separate entries in the source; they are usually repeats but may differ in a detail not shown here. Equal values may be shown once.

Key:
Assay type in all cases: cell-based
PPARα = target: T1, PPARα (Homo sapiens, UniProt Q07869); experiment: PPARα transactivation activity (GAL4-hPPARα LBD / UASx4-TK-LUC reporter in CV-1 cells); details: for PPARα transactivation activity: a relative value (control = 100%): CV-1 cells, Table 25; for Emax: CV-1, in the manner as described in Example 9, Table 26, read-out: PPARα (PPAR activating power)
T1 construct: Receptor expression plasmid (GAL4-hPPARα, LBD GAL4-hPPARγ LBD, GAL4-hPPARδ LBD); expressed in transfected cells; host or cells: CV-1 cells
T1 sequence (Q07869 239-466 limits assumed): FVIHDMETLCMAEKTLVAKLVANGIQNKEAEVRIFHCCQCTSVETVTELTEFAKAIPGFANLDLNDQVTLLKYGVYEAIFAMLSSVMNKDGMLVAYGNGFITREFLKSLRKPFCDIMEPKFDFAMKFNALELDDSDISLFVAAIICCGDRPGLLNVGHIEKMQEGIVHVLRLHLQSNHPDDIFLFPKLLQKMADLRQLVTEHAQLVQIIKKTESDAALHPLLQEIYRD
Experimental: (§1) (1) Measurement of PPARα,γ,δ Transactivation Activity
(§2) PPARα,γ,δ transactivation activity of each compound [Examples 1-6 and known PPARδ agonist (L-16504: Berger, J., et al. (1999), J. Biol. Chem., 274:6718-6725)] was measured in the manner described below.
(§3) CV-1 was obtained from Tohoku University Aging Medical Laboratory, Medical Cell Collection Center. All test compounds were dissolved in dimethylsulfoxide (DMSO) to give a test sample of 0.1% concentration.
(§4) Receptor expression plasmid (GAL4-hPPARα, LBD GAL4-hPPARγ LBD, GAL4-hPPARδ LBD), Reporter plasmid (UASx4-TK-LUC), and β-galactosidase expression plasmid (βGAL) similar to Kliewer, S. A., et al., ((1992) Nature, 358:771-774) were employed.
(§5) CV-1 cells were seeded in 24 well culture plates at 2×10^5 cells per well, and cultured for 24 hours using 4%-fetal bovine serum(FBS)-added OPTI-MEM I Reduced Serum Medium (Life Technologies, 500 μL/well). Subsequently, the cells were washed with non serum-added OPTI-MEM. To the washed cells were added DNA-containing solution [the following components were contained in the one well solution (250 μl): 0.03 μg of GAL4-hPPARδ LBD, 0.25 μg of UASx4-TK-LUC, 0.35 μg of βGAL, and 2 μL of lipofection reagent, DMRIE-C (Life Technologies). These components were dissolved in OPTI-MEM and allowed to stand for 30 minutes at room temperature]. The cells were incubated for 5 hours at 37° C.
(§6) The cells were then incubated for 40 hours in 500 μL of fresh OPTI-MEM containing 4% FBS and the test compound (dissolved in 100% DMSO to reach a final concentration: 10^−4M or 10^−5M).
(§7) The culture medium was removed and the cells were washed with PBS twice. Cell lysates were produced using a solubilizing buffer (25 mM Tris-PO4 (pH 7.8), 15%v/v glycerol, 2% CHAPS, 1% Lecithin, 1% BSA, 4 mM EGTA (pH 8.0), 8 mM MgCl2, 1 mM DTT). A portion (20 μL) of the solution was transferred onto a 96-well plate. Subsequently, 100 μL of luciferase substrate solution (Piccagene: available from Nippon Gene Co., Ltd.) was added, and a luminous intensity per one sec. (luciferase activity) was measured by means of MLR-100 type Microluminoreader (available from Corona Electrics Co., Ltd.). Further, the activity caused by […] incorporation which was incorporated into the cells simultaneously with the incorporation of the luciferase gene was measured, for correcting variation of luciferase activity by the addition of the compound, utilizing the transfection efficiency of the incorporated gene. β-Galactosidase activity was measured by the following method: 50 μL of the solubilized sample was placed on another 96-well plate; 10 μL of ONPG (2-nitrophenyl-β-galactopyranoside) solution was added; incubation was carried out for 5 minutes at room temperature; 50 μL of a reaction stopping solution (1M sodium carbonate solution) was added; and the absorbance at 414 nm was measured.

PPARδ = target: T2, PPARδ (Homo sapiens, UniProt Q03181); experiment: PPARδ transactivation activity (GAL4-hPPARδ LBD / UASx4-TK-LUC reporter in CV-1 cells); details: for PPARδ transactivation activity: a relative value (control = 100%): compound at 10^−5 M, Table 25; for PPARδ transactivation activity: a relative value (control = 100%) / activity to PPARδ relative to activity to PPARα and γ (selectivity): CV-1 cells; for activity to PPARδ relative to activity to PPARα and γ (selectivity): GAL4-hPPAR LBD reporter, relative activities vs control reagents; for Emax: CV-1, 40 h, in the manner as described in Example 9, Table 26, read-out: PPARδ (PPAR activating power)
T2 construct: A chimeric receptor expression plasmid (GAL4-hPPARδ LBD); expressed in transfected cells; host or cells: CV-1 cells
T2 sequence (Q03181 211-439 limits assumed): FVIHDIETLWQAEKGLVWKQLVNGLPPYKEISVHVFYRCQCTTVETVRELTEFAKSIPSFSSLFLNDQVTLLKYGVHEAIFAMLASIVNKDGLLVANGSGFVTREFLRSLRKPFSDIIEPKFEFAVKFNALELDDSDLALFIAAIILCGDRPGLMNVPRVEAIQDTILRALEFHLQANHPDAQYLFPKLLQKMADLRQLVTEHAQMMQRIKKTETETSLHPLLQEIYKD
Experimental: A chimeric receptor expression plasmid (GAL4-hPPARδ LBD), a reporter plasmid (UASx4-TK-LUC) and β-galactosidase (β-GAL) are transfected into CV-1 cells by utilizing a lipofection reagent DMRIE-C (Life Technologies).
as §1
CV-1 was obtained from Tohoku University Aging Medical Laboratory, Medical Cell Collection Center.
as §5, §6, §7

PPARγ = target: T3, PPARγ (Homo sapiens, UniProt P37231); experiment: PPARγ transactivation activity (GAL4-hPPARγ LBD / UASx4-TK-LUC reporter in CV-1 cells); details: for PPARγ transactivation activity: a relative value (control = 100%): compound at 10^−5 M, CV-1 cells, Table 25; for Emax: CV-1, in the manner as described in Example 9, Table 26, read-out: PPARγ (PPAR activating power)
T3 construct: Receptor expression plasmid (GAL4-hPPARα, LBD GAL4-hPPARγ LBD, GAL4-hPPARδ LBD); expressed in transfected cells; host or cells: CV-1 cells
T3 sequence (P37231 238-503 limits assumed): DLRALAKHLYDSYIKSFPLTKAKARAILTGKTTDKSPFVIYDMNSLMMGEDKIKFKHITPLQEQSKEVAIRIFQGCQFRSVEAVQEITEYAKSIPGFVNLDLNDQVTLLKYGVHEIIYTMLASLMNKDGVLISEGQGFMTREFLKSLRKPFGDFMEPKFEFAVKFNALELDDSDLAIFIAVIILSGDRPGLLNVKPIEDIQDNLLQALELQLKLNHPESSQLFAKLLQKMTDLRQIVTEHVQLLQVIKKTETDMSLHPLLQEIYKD
Experimental: In the same manner, relative ligand activities to PPARδ and γ transactivation activitis are calculated (see the below-mentioned Example 9).
as §1, §2, §3, §4, §5, §6, §7

| PPARα transactivation activity: a relative value (control = 100%) (PPARα; compound at 10^−5 M) [%] | PPARδ transactivation activity: a relative value (control = 100%) (PPARδ) [%] | PPARγ transactivation activity: a relative value (control = 100%) (PPARγ) [%] | activity to PPARδ relative to activity to PPARα and γ (selectivity) (PPARδ) | Emax (PPARα) [%] | Emax (PPARδ) [%] | Emax (PPARγ) [%] | PPARα transactivation activity: a relative value at 10^−5 M (control = 100%) (PPARα; compound at 10^−5 M, control WY-14643 (10^−4M), Table 27) | SMILES |
| --- | --- | --- | --- | --- | --- | --- | --- | --- |
| – | – | – | – | 1 | 58 | 26 | – | CC(C)c1oc(-c2ccc(-c3ccccc3)cc2)nc1CCC(=O)c1ccc(OC(C)(C)C(=O)O)cc1 [Example 7-8, 2-[4-[3-[2-(4-Biphenylyl)-5-isopropyl-4-oxazolyl]-propionyl]phenyloxy]-2-methylpropionic acid] |
| – | – | – | selectively higher | 8 ± 1 | 79 ± 2 | 4 | – | CC(C)c1oc(-c2cccc(Cl)c2O)nc1CCC(=O)c1ccc(OC(C)(C)C(=O)O)cc1 [Example 7-12, 2-[4-[3-[2-(3-Chloro-2-hydroxyphenyl)-5-isopropyl-4-oxazolyl]propionyl]phenyloxy]-2-methylpropionic acid] |
| – | – | – | – | 1 | 58 ± 14 | 2 | – | CCC(C)(Oc1ccc(C(=O)CCc2nc(-c3ccc(Cl)cc3Cl)oc2C(C)C)cc1)C(=O)O (stereo not drawn) [Example 7-5, 2-[4-[3-[2-(2,4-Dichlorophenyl)-5-isopropyl-4-oxazolyl]propionyl]phenyloxy]-2-methylbutyric acid] |
| – | – | – | – | 29 ± 3 | 85 ± 1 | 18 ± 4 | – | CC(C)c1oc(-c2cc3ccccc3cc2O)nc1CCC(=O)c1ccc(OC(C)(C)C(=O)O)cc1 [Example 7-11, 2-[4-[3-[2-(3-Hydroxy-2-naphthyl)-5-isopropyl-4-oxazolyl]propionyl]phenyloxy]-2-methylpropionic acid] |
| – | – | – | – | 2 ± 1 | – | 1 ± 0.03 | – | CCCc1c(OCCCOc2ccc(OCC(=O)O)cc2)ccc(C(C)=O)c1O [Example L-165041, reference compound] |
| – | – | – | – | 8 | 80 ± 5 | 5 ± 1 | – | CC(C)c1oc(-c2ccc3ccccc3c2O)nc1CCC(=O)c1ccc(OC(C)(C)C(=O)O)cc1 [Example 7-9, 2-[4-[3-[2-(1-Hydroxy-2-naphthyl)-5-isopropyl-4-oxazolyl]propionyl]phenyloxy]-2-methylpropionic acid] |
| – | – | – | – | 1 | 81 | 3 | – | CC(C)c1oc(-c2ccc(Br)cc2Cl)nc1CCC(=O)c1ccc(OC(C)(C)C(=O)O)cc1 [Example 7-13, 2-[4-[3-[2-(4-Bromo-2-chlorophenyl)-5-isopropyl-4-oxazolyl]propionyl]phenyloxy]-2-methylpropionic acid] |
| – | – | – | – | – | – | – | 129% and 126% and 120% and 166% | Cc1nc(-c2ccc(C(F)(F)F)cc2)sc1CCC(=O)c1ccc(OC(C)(C)C(=O)O)cc1 [Example 8-1, 2-[4-[3-[2-[(4-Trifluoromethyl)phenyl]-4-methyl-5-thiazolyl]propionyl]phenyloxy]-2-methylpropionic acid] |
| – | – | – | – | 2 | 53 | 18 | – | CC(C)c1oc(-c2ccc(-c3ccccc3)cc2Cl)nc1CCC(=O)c1ccc(OC(C)(C)C(=O)O)cc1 [Example 7-14, 2-[4-[3-[2-(3-Chloro-4-biphenylyl)-5-isopropyl-4-oxazolyl]propionyl]phenyloxy]-2-methylpropionic acid] |
| – | – | – | – | 3 | 70 | 1 | – | CC(C)c1oc(-c2ccc(Cl)cc2Cl)nc1CC=Cc1ccc(OC(C)(C)C(=O)O)cc1 [Example 7-10, 2-[4-[3-[2-(2,4-Dichlorophenyl)-5-isopropyl-4-oxazolyl]-1-propenyl]phenyloxy]-2-methylpropionic acid] |

Further lines, the compound ahead of its results:

| SMILES | PPARα transactivation activity: a relative value (control = 100%) (PPARα; compound at 10^−5 M) [%] | PPARδ transactivation activity: a relative value (control = 100%) (PPARδ) [%] | PPARγ transactivation activity: a relative value (control = 100%) (PPARγ) [%] | activity to PPARδ relative to activity to PPARα and γ (selectivity) (PPARδ) | Emax (PPARα) [%] | Emax (PPARδ) [%] | Emax (PPARγ) [%] | PPARα transactivation activity: a relative value at 10^−5 M (control = 100%) (PPARα; compound at 10^−5 M, control WY-14643 (10^−4M), Table 27) |
| --- | --- | --- | --- | --- | --- | --- | --- | --- |
| CCCc1oc(-c2ccc(Cl)cc2)nc1CCC(=O)c1ccc(OC(C)(C)C(=O)O)cc1 [Example 2, 2-[4-[3-[2-(4-Chlorophenyl)-5-propyl-4-oxazolyl]propionyl]phenyloxy]-2-methylpropionic acid] | 75 ± 4 | 93 ± 4 | 51 ± 3 | – | – | – | – | – |
| CC(C)c1oc(-c2ccccc2Cl)nc1CCC(=O)c1ccc(OC(C)(C)C(=O)O)cc1 [Example 1, 2-[4-[3-[2-(2-Chlorophenyl)-5-isopropyl-4-oxazolyl]propionyl]phenyloxy]-2-methylpropionic acid] | 9 ± 1 | 80 ± 10 | 27 ± 3 | selectively higher | – | – | – | – |
| CC(C)c1oc(-c2ccccc2Cl)nc1CCC(O)c1ccc(OC(C)(C)C(=O)O)cc1 (stereo not drawn) [Example 4, 2-[4-[3-[2-(2-Chlorophenyl)-5-isopropyl-4-oxazolyl]-1-hydroxypropyl]phenyloxy]-2-methylpropionic acid] | 35 | 23 | 26 | – | – | – | – | – |
| CC(C)c1oc(-c2ccccc2Cl)nc1CC=Cc1ccc(OC(C)(C)C(=O)O)cc1 [Example 5, 2-[4-[3-[2-(2-Chlorophenyl)-5-isopropyl-4-oxazolyl]-1-propenyl]phenyloxy]-2-methylpropionic acid] | 52 ± 7 | 114 ± 1 | 36 ± 3 | selectively higher | – | – | – | – |
| CC(C)c1oc(-c2ccccc2Cl)nc1CCC(=NO)c1ccc(OC(C)(C)C(=O)O)cc1 [Example 3, 2-[4-[3-[2-(2-Chlorophenyl)-5-isopropyl-4-oxazolyl](1-hydroxyimino)propyl]phenyloxy]-2-methyl-propionic acid] | 10 | 19 | 16 | – | – | – | – | – |
| CC(C)c1oc(-c2ccccc2Cl)nc1CCCc1ccc(OC(C)(C)C(=O)O)cc1 [Example 6, 2-[4-[3-[2-(2-Chlorophenyl)-5-isopropyl-4-oxazolyl]propyl]phenyloxy]-2-methylpropionic acid] | 98 ± 6 | 109 ± 10 | 93 ± 1 | – | – | – | – | – |
